One assay has as its target T1, recombinant human DAGLα (Homo sapiens, UniProt Q9Y4D2).
T1 sequence (Q9Y4D2 1-1042): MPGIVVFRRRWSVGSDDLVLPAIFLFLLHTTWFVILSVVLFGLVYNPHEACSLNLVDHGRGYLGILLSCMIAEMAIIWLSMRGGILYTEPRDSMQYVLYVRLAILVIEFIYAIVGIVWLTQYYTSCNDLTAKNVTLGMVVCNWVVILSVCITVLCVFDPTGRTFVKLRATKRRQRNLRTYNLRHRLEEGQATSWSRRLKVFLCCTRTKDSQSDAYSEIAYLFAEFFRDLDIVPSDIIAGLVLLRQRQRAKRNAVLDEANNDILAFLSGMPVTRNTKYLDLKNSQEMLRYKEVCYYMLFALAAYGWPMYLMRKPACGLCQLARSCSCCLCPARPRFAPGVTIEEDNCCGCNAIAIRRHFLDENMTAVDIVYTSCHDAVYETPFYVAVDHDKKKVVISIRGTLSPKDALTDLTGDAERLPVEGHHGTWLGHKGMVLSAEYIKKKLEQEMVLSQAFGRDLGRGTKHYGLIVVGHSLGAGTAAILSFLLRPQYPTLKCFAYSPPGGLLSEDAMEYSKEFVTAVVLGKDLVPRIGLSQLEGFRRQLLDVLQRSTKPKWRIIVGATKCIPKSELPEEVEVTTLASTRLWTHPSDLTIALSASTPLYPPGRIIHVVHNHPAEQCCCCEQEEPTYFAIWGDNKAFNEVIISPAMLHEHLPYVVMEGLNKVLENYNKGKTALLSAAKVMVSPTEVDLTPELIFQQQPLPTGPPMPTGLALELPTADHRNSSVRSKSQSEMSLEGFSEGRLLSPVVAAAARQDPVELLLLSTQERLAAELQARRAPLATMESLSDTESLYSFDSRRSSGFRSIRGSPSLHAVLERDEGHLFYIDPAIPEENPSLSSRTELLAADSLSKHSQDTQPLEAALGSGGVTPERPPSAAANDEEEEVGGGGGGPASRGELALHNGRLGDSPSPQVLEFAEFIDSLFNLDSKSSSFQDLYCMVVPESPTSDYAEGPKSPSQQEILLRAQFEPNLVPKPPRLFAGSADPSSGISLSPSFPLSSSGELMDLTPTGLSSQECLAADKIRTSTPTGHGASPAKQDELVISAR
Briefly: colorimetric DAGLα activity assay. In kind it is biochemical. As to conditions: for LipE: LipE = pIC50 - cLogP; for fold drop in potency/activity: 2 compared to 1, 109 compared to 1, 122 compared to oleoyl analogue 121.

For assay [1], the system named is panel of serine hydrolases. As to conditions: gel-based competitive ABPP; FAAH only detected off-target; ref [12], [13]; cited from earlier work.
For the next assay, the system named is FAAH. As to the kind of experiment: FAAH activity reported in the literature. In kind it is biochemical. As to conditions: DAGLα pIC50 versus previously reported FAAH pKi.

With `O=C(CCCCCc1ccccc1)c1nc2ncccc2o1` [Compound 1, 1-(Oxazolo[4,5-b]pyridin-2-yl)-6-phenylhexan-1-one], the LipE on recombinant human DAGLα was 3.35. Moreover, the “selectivity over a panel of serine hydrolases” value in assay [1] was “highly selective”.

For the compound `O=C(CCCCCCc1ccccc1)c1nc(C(=O)C(F)(F)F)co1` [Compound 45], in the assay on FAAH, the “selectivity over FAAH” value is “selective over FAAH”.

Turning to `O=C(CCc1ccccc1)c1nc2ncccc2o1` [Compound 106, 1-(Oxazolo[4,5-b]pyridin-2-yl)-3-phenylpropan-1-one], the LipE at recombinant human DAGLα was 2.11.

Turning to `O=C(CCCc1ccccc1)c1nc2ncccc2o1` [Compound 107, 1-(Oxazolo[4,5-b]pyridin-2-yl)-4-phenylbutan-1-one], the LipE on recombinant human DAGLα was found to be 2.64.

`O=C(CCCCc1ccccc1)c1nc2ncccc2o1` [Compound 108, 1-(Oxazolo[4,5-b]pyridin-2-yl)-5-phenylpentan-1-one]: the LipE on recombinant human DAGLα is 3.15.

For `O=C(CCCCCCc1ccccc1)c1nc2ncccc2o1` [Compound 109, 1-(Oxazolo[4,5-b]pyridin-2-yl)-7-phenylheptan-1-one], at recombinant human DAGLα, the “fold drop in potency/activity” value is reported as more than 10 fold and the LipE was 1.68.

For `O=C(CCCCCCCc1ccccc1)c1nc2ncccc2o1` [Compound 110, 1-(Oxazolo[4,5-b]pyridin-2-yl)-8-phenyloctan-1-one], at recombinant human DAGLα, the LipE is reported as 2.20.

On to `O=C(CCCCCCCCc1ccccc1)c1nc2ncccc2o1` [Compound 111], for which the LipE at recombinant human DAGLα was determined as 2.78.

Turning to `CCCCC/C=C\C/C=C\C/C=C\C/C=C\CCCC(=O)c1nc2ncccc2o1` [Compound 122], the “fold drop in potency/activity” value at recombinant human DAGLα is approximately 100 fold.

As to `CCCCCCCC/C=C\CCCCCCCC(=O)c1nc2ccccc2[nH]1` [Compound 123], the “selectivity over FAAH” value with FAAH is on record as “selective over FAAH”.

Turning to `O=C(CCCCCCc1ccccc1)c1ncc(-c2ccccn2)o1` [OL-135, reference compound], the “DAGLα inhibitor activity (in words)” value at recombinant human DAGLα is “not active”.

The values above are taken from PMC4690813 (Journal of medicinal chemistry, 2015).
